We go through 23 compounds from ChEMBL document CHEMBL2157957, “Strategies to mitigate the bioactivation of 2-anilino-7-aryl-pyrrolo[2,1-f][1,2,4]triazines: identification of orally bioavailable, efficacious ALK inhibitors” (J Med Chem, 2012).

The nature of series [1]: Half life in monkey liver microsomes at 0.5 uM preincubated for 10 mins before NADPH and UDPGA challenge. The series is classed as ADME, Macaca mulatta, Microsome. The settings on record: rhesus monkey. Background: Microsomes from liver hold many membrane-bound enzymes, among them those of drug oxidation.
The target of series [2] is NPM/ALK (Nucleophosmin/ALK tyrosine kinase receptor) (Homo sapiens, UniProt Q9UM73). In words: Inhibition of human NPM-ALK phosphorylation using 4-MeUP substrate by cell based assay.
Sequence of NPM/ALK (Nucleophosmin/ALK tyrosine kinase receptor) (Q9UM73 whole entry): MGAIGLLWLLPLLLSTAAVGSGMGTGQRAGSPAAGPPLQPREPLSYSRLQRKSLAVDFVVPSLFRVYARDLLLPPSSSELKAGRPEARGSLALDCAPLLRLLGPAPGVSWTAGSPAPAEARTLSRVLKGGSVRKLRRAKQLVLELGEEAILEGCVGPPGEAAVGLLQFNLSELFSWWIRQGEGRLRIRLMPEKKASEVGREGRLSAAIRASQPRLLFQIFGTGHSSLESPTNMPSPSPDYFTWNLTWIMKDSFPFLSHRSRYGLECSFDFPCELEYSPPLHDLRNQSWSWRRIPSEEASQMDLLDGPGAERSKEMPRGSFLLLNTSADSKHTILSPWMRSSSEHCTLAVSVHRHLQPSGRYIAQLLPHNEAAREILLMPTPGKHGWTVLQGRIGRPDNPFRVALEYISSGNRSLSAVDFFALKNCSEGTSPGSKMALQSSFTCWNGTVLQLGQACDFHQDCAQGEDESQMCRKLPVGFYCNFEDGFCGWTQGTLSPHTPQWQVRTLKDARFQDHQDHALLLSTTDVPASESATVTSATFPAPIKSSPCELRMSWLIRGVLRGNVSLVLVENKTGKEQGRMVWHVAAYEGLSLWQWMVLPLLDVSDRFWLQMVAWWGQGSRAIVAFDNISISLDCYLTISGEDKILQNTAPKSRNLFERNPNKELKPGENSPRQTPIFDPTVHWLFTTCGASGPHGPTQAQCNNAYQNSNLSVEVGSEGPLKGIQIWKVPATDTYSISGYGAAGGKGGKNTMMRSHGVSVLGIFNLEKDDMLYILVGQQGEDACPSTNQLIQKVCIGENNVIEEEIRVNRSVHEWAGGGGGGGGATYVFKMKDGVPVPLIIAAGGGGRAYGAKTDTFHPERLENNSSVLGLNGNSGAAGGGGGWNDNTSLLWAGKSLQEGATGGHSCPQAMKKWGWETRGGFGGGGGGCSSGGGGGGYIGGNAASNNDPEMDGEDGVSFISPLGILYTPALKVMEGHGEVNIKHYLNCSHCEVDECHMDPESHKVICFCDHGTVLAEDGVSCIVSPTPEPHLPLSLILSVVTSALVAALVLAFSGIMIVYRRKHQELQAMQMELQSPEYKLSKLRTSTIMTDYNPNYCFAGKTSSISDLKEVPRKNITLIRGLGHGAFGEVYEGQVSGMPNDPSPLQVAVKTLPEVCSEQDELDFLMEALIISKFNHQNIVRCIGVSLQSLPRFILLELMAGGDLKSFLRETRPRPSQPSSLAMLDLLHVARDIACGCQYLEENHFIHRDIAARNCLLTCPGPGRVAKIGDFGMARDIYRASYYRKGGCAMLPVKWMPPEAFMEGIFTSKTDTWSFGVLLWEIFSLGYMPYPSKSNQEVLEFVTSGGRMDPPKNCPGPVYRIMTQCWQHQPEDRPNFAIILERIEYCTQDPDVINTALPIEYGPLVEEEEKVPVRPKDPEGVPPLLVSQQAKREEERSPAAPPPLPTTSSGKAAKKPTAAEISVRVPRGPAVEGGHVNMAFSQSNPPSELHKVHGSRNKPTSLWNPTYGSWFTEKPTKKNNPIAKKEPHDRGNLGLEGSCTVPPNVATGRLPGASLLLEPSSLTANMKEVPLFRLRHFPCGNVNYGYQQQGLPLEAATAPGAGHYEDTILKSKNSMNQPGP
Sequence of NPM/ALK (Nucleophosmin/ALK tyrosine kinase receptor) (P06748 whole entry, further chain): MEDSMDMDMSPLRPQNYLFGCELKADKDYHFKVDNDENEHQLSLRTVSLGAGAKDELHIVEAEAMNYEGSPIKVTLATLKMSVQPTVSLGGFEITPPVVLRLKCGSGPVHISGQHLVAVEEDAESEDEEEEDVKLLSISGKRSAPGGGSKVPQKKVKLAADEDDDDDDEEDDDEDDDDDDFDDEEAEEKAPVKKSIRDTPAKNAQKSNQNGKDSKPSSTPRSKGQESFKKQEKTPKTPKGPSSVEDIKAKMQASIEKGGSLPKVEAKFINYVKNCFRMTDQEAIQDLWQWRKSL
In a further series the target is Insulin receptor (Homo sapiens, UniProt P06213). The series can be described thus: Inhibition of IR.
Sequence of Insulin receptor (P06213 28-758 limits assumed): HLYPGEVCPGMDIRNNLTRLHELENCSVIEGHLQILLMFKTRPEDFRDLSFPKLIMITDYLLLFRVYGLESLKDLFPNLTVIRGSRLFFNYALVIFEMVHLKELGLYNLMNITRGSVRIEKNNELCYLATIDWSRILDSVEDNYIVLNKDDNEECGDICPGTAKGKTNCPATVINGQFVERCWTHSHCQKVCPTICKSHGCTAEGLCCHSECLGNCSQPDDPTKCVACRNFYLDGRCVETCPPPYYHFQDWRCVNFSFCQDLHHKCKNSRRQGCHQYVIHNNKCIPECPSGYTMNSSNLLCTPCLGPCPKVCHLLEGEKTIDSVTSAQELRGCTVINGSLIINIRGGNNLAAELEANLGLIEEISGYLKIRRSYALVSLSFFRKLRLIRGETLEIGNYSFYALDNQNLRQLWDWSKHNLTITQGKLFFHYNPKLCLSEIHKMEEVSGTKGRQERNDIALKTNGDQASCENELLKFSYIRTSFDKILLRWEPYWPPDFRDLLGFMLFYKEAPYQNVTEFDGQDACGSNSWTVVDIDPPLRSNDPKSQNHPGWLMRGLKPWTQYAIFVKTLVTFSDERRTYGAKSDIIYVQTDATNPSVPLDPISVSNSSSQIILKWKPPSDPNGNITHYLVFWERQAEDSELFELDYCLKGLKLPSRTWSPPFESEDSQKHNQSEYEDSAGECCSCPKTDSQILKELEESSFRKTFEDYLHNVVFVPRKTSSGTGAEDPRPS
Sequence of Insulin receptor (P06213 763-1382 limits assumed): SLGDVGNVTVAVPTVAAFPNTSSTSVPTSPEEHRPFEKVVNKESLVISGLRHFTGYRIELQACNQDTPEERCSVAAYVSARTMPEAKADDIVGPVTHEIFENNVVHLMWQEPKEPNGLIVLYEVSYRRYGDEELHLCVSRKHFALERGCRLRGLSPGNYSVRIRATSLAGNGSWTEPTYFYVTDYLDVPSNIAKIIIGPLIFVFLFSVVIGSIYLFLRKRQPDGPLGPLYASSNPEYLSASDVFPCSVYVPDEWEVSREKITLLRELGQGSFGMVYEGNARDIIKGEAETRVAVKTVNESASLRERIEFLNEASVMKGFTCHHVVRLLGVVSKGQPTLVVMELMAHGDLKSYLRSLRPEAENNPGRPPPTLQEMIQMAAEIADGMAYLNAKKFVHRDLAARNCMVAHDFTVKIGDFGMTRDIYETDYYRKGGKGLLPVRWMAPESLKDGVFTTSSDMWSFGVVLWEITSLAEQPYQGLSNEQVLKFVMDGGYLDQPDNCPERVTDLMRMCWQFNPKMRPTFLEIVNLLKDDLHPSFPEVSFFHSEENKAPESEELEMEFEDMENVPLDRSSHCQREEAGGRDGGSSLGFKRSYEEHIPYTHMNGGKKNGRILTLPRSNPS
Series [3] can be described thus: Half life in human liver microsomes at 0.5 uM preincubated for 10 mins before NADPH and UDPGA challenge. The series is classed as ADME, Microsome.
Series [4] concerns the target ALK tyrosine kinase receptor (Homo sapiens, UniProt Q9UM73). The series can be described thus: Inhibition of GST-tagged human ALK cytoplasmic domain (1058-1620) expressed in Sf21 insect cells using GST-tagged human recombinant PLC-gamma/substrate by ELISA. On the technique in general: In an ELISA, binding on a coated surface is turned into a signal by an enzyme label.

Series [5] in a line: Half life in CD1 mouse liver microsomes at 0.5 uM preincubated for 10 mins before NADPH and UDPGA challenge. In kind it is ADME, Microsome.
The nature of series [6]: Half life in Sprague-Dawley rat liver microsomes at 0.5 uM preincubated for 10 mins before NADPH and UDPGA challenge. In kind it is ADME, Microsome.
A short description of series [7]: Half life in Sprague-Dawley rat at 1 mg/kg, iv. Also on record: dose 1 mg/kg, route intravenous. The series is classed as ADME, organism-based. The note with it: in vivo.
Series [8] is described as follows: Oral bioavailability in Sprague-Dawley rat at 5 mg/kg. The series is classed as ADME, organism-based. The settings on record: in vivo.
The nature of series [9]: Clearance in Sprague-Dawley rat at 1 mg/kg, iv. The series is classed as ADME, organism-based. Also on record: dose 1 mg/kg, route intravenous. The note with it: in vivo.
The subject of the next series is Mus musculus. The series can be described thus: Inhibition of NPM-ALK phosphorylation in human SUP-M2 cells xenografted in SCID mouse at 30 mg/kg, po administered as single dose measured 12 hrs post dose. The settings on record: SUP-M2, 12 h. The series is classed as functional. On the technique in general: In xenograft studies the graft and the host belong to different species.

Series [10] is described as follows: Half life in rat liver S9 fraction. In kind it is ADME, subcellular.
A short description of series [11]: AUC (0 to t) in Sprague-Dawley rat at 5 mg/kg, po. The series is classed as ADME, organism-based. Also on record: dose 5 mg/kg, route oral. The note with it: plasma.

Sequence of ALK tyrosine kinase receptor (Q9UM73 whole entry, the tested form may be a part): as the sequence (Q9UM73 whole entry) above

For the compound `CNC(=O)CN1CCC(c2ccc(Nc3ncc4ccc(-c5ccccc5OC)n4n3)c(OC)c2)CC1`, the half-life at 0.5 µM in series [1] and in series [3] was less than 12 min each time. The IC50 (commonly the concentration that inhibits the measured activity by half) in series [2] stood at 0.1 µM; against Insulin receptor, 0.161 µM; in series [4] it was 0.01 µM.

For `COc1ccc(-c2ccc3cnc(Nc4ccc(C5CCN(CC(N)=O)CC5)cc4OC)nn23)c(OC)c1`, the IC50 in [2] worked out at 0.5 µM; at Insulin receptor, 2.97 µM; in [4], 0.012 µM.

Turning to `COc1cc(C2CCN(CC(N)=O)CC2)ccc1Nc1ncc2ccc(-c3ccccc3C#N)n2n1`, the figures for the IC50 (in [2]; against Insulin receptor; in series [4]) were 0.25 µM, 0.747 µM and 0.019 µM, respectively.

For the compound `COc1cc(C2CCN(CC(N)=O)CC2)ccc1Nc1ncc2ccc(-c3ncccc3OC)n2n1`, the IC50 was more than 10 µM at Insulin receptor and 1.06 µM in series [4].

Take `COc1cc(C2CCN(CC(N)=O)CC2)ccc1Nc1ncc2ccc(-c3ccncc3OC)n2n1`: the values for the IC50 (in [2]; against Insulin receptor; in series [4]) were 0.15 µM, 0.41 µM and 0.009 µM, respectively.

With `COc1cc(C2CCN(CC(N)=O)CC2)ccc1Nc1ncc2ccc(-c3ccccc3N(C)S(C)(=O)=O)n2n1`, the half-life (as a rule, how long it takes for the measured level to halve) at 0.5 µM was less than 5 min in [1], less than 5 min in series [3], 29 min in series [5] and less than 5 min in series [6]. Besides, the IC50 in series [2] is 0.08 µM; at Insulin receptor, 0.552 µM; in [4] it was 0.015 µM.

As for `COc1cc(C2CCN(CC(N)=O)CC2)ccc1Nc1ncc2c(O)cc(-c3ccccc3N(C)S(C)(=O)=O)n2n1`, the half-life at 0.5 µM in [1], in series [3], in series [5] and in [6] was less than 5 min each time. In [4], the 50% inhibitory concentration (IC50) is 0.011 µM.

Compound `COc1cc(C2CCN(CC(N)=O)CC2)ccc1Nc1ncc2c(C)cc(-c3ccccc3N(C)S(C)(=O)=O)n2n1` gave a half-life in series [7] of more than 120 min. In addition, the bioavailability (as a rule, dose-corrected exposure relative to a reference, in per cent) in series [8] was 24%. Also, the half-life at 0.5 µM in series [1] is 6 min; in series [3], 18 min; in series [5], more than 40 min; in series [6], 31 min. In addition, the clearance (usually the volume of plasma or blood freed of the substance per unit of time) in series [9] was not above 4 mL/min/kg. Further, the inhibition in vivo – broadly, the percentage by which the read-out fell short of the control – at 30 mg/kg with Mus musculus was less than 75%. For the same compound, the results for the IC50 in [2] and in series [4] were 0.07 µM and 0.006 µM, respectively.

In series [7], `COc1cc(C2CCN(CC(N)=O)CC2)ccc1Nc1ncc2c(Cl)cc(-c3ccccc3N(C)S(C)(=O)=O)n2n1` displayed a half-life of more than 120 min. This compound displayed a bioavailability in series [8] of 41%. Also, the half-life at 0.5 µM in series [1] was 15 min; in series [3], 37 min; in series [5] it was more than 40 min; in series [6] it was more than 40 min. In series [9], this compound displayed a clearance not above 4 mL/min/kg. Further, in the series on Mus musculus, the inhibition in vivo at 30 mg/kg was less than 75%. Moreover, the IC50 in [2] amounted to 0.07 µM; in series [4] it was 0.0047 µM.

For `COc1c(Nc2ncc3ccc(-c4ccccc4N(C)S(C)(=O)=O)n3n2)ccc(N2CCN(C[C@H](C)O)CC2)c1F`, the IC50 in series [4] was determined as 0.056 µM.

On to `COc1cc(N2CCN(C[C@H](C)O)CC2)c(F)cc1Nc1ncc2ccc(-c3ccccc3N(C)S(C)(=O)=O)n2n1`, for which the IC50 is 0.2 µM in series [2] and 0.014 µM in series [4].

Take `C[C@H](O)CN1CCN(c2cc(F)c(Nc3ncc4ccc(-c5ccccc5N(C)S(C)(=O)=O)n4n3)cc2F)CC1`: the IC50 in [4] was found to be 0.091 µM.

For the compound `COc1ccc(N2CCN(C)CC2)cc1Nc1ncc2ccc(-c3ccccc3N(C)S(C)(=O)=O)n2n1`, the half-inhibitory concentration (IC50) in [4] amounted to 0.028 µM.

Consider `COc1ccc(N2CCN(C)CC2)cc1Nc1ncc2ccc(-c3ccccc3OC)n2n1`, for which the IC50 in [4] worked out at 0.187 µM.

Turning to `COc1cc(C2CCN(CCO)CC2)ccc1Nc1ncc2ccc(-c3ccccc3N(C)S(C)(=O)=O)n2n1`, the half-life at 0.5 µM in [1] is less than 5 min; in series [3] it was less than 5 min; in series [5] it was more than 40 min; in series [6], 21 min. The IC50 in series [2] stood at 0.06 µM; in series [4], 0.006 µM.

In the case of `COc1cc(C2CCN(C[C@@H](C)O)CC2)ccc1Nc1ncc2ccc(-c3ccccc3N(C)S(C)(=O)=O)n2n1`, the half-life at 0.5 µM in [1] was less than 5 min; in [3] it was less than 5 min; in [5], more than 40 min; in [6], 11 min. The IC50 in [2] worked out at 0.07 µM; in series [4] it was 0.006 µM.

For the compound `COc1cc(C2CCNCC2)ccc1Nc1ncc2ccc(-c3ccccc3N(C)S(C)(=O)=O)n2n1`, the half-life at 0.5 µM in series [1] was less than 5 min; in series [3] it was 7 min; in [5] it was more than 40 min; in [6], 22 min. Besides, the IC50 came out at 0.04 µM in series [2] and 0.01 µM in [4].

In series [8], `COc1cc(C2CCN(C[C@@H](C)O)CC2)ccc1Nc1ncc2ccc(-c3ccccc3OC)n2n1` gave a bioavailability of less than 1%. Besides, the half-life at 0.5 µM is 21 min in series [1], more than 40 min in series [3], more than 40 min in [5] and more than 40 min in [6]. In [10], this compound yielded a half-life of more than 40 min. Also, the IC50 in series [2] turned out to be 0.1 µM; in series [4], 0.0034 µM. In series [11], the exposure AUC(0-t) (commonly the area under the concentration-time curve up to a stated or last time point) was determined as 11 ng·h/mL.

In turn, `COc1cc(C2CCN(C)CC2)ccc1Nc1ncc2ccc(-c3ccccc3OC)n2n1` showed a half-life in series [7] of 84 min. For the same compound, in [8], the bioavailability worked out at 3%. The clearance in series [9] was found to be 29 mL/min/kg. In addition, the IC50 in series [2] came out at 0.07 µM; against Insulin receptor it was 0.222 µM; in series [4], 0.006 µM.

Consider `COc1cc(C2CCN(C[C@H](O)CO)CC2)ccc1Nc1ncc2ccc(-c3ccccc3OC)n2n1`, for which the half-life in series [7] was 120 min; in [10] it was more than 40 min. In series [8], this compound displayed a bioavailability of 15%. Moreover, the clearance in series [9] amounted to 39 mL/min/kg. Moreover, the figures for the IC50 (in [2]; against Insulin receptor; in [4]) were 0.03 µM, 0.164 µM and 0.0029 µM, respectively. Further, the half-life at 0.5 µM in [6] was more than 40 min.

On to `COc1cc(C2CCN(C(=O)C(C)(C)N)CC2)ccc1Nc1ncc2ccc(-c3ccccc3OC)n2n1`, for which the half-life is 156 min in series [7] and more than 40 min in [10]. The bioavailability in series [8] was determined as 13%. In addition, in [9], the clearance is 25 mL/min/kg. For the same compound, the results for the 50% inhibitory concentration (IC50) (in [2]; at Insulin receptor; in series [4]) were 0.15 µM, 0.579 µM and 0.007 µM, respectively. Besides, in series [6], the half-life at 0.5 µM was more than 40 min.

Turning to `COc1cc(C2CCN(CC(O)CF)CC2)ccc1Nc1ncc2ccc(-c3ccccc3OC)n2n1` (racemic), the figures for the half-life in series [7] and in series [10] were 84 min and more than 40 min, respectively. The bioavailability in series [8] was 16%. In addition, in series [9], the clearance came out at 62 mL/min/kg. In addition, the IC50 came to 0.08 µM in [2], 0.149 µM against Insulin receptor and 0.003 µM in series [4]. In addition, in series [6], the half-life at 0.5 µM is more than 40 min.

In the case of `COc1cc(C2CCN(C(=O)C3CCN3)CC2)ccc1Nc1ncc2ccc(-c3ccccc3OC)n2n1` (racemic), the half-life in series [7] is 150 min; in series [10], more than 40 min. For the same compound, in [8], the bioavailability was 15%. The same compound displayed a clearance in series [9] of 32 mL/min/kg. Besides, the IC50 in series [2] was 0.2 µM; on Insulin receptor, 0.335 µM; in [4], 0.011 µM. Also, the half-life at 0.5 µM in series [6] was more than 40 min.
